Measured values as given in PubChem BioAssay (NCI).
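In this assay, cells in 96-well plates receive the compound at five concentrations for 48 hours. Endpoints are linearly interpolated between the surrounding concentrations. Definition used: TGI = concentration required for complete inhibition of growth.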

Legend:
Assay in all cases: inhibition of tumour cell growth, NCI panel, 48 h
UO-31 renal = tested on: UO-31 renal
NCI-H460 lung = tested on: NCI-H460 lung
UACC-62 melanoma = tested on: UACC-62 melanoma
KM20L2 colon = tested on: KM20L2 colon
M19-MEL melanoma = tested on: M19-MEL melanoma
TK-10 renal = tested on: TK-10 renal
SNB-78 CNS = tested on: SNB-78 CNS
CCRF-CEM leukemia = tested on: CCRF-CEM leukemia
SF-295 CNS = tested on: SF-295 CNS
DMS 114 small cell lung = tested on: DMS 114 small cell lung
MOLT-4 leukemia = tested on: MOLT-4 leukemia
OVCAR-8 ovarian = tested on: OVCAR-8 ovarian
RXF 393 renal = tested on: RXF 393 renal
SR leukemia = tested on: SR leukemia
SK-OV-3 ovarian = tested on: SK-OV-3 ovarian
HOP-62 NSCLC = tested on: HOP-62 NSCLC
KM12 colon = tested on: KM12 colon
NCI-H23 lung = tested on: NCI-H23 lung
UACC-257 melanoma = tested on: UACC-257 melanoma
ACHN renal = tested on: ACHN renal
HL-60(TB) leukemia = tested on: HL-60(TB) leukemia
EKVX NSCLC = tested on: EKVX NSCLC
M14 melanoma = tested on: M14 melanoma
HCT-116 colon = tested on: HCT-116 colon
NCI-H522 lung = tested on: NCI-H522 lung
SK-MEL-28 melanoma = tested on: SK-MEL-28 melanoma
A498 renal = tested on: A498 renal
SNB-19 CNS = tested on: SNB-19 CNS
U251 CNS = tested on: U251 CNS
RXF-631 renal = tested on: RXF-631 renal
IGROV1 ovarian = tested on: IGROV1 ovarian
OVCAR-5 ovarian = tested on: OVCAR-5 ovarian
HOP-92 NSCLC = tested on: HOP-92 NSCLC
HT29 colon = tested on: HT29 colon
A549 NSCLC = tested on: A549 NSCLC
HCC-2998 colon = tested on: HCC-2998 colon
SF-539 CNS = tested on: SF-539 CNS
DMS 273 small cell lung = tested on: DMS 273 small cell lung
786-0 renal = tested on: 786-0 renal
SNB-75 CNS = tested on: SNB-75 CNS
LXFL 529 NSCLC = tested on: LXFL 529 NSCLC
K-562 leukemia = tested on: K-562 leukemia
SF-268 CNS = tested on: SF-268 CNS
OVCAR-4 ovarian = tested on: OVCAR-4 ovarian
SN12C renal = tested on: SN12C renal
SK-MEL-2 melanoma = tested on: SK-MEL-2 melanoma
SK-MEL-5 melanoma = tested on: SK-MEL-5 melanoma
HCT-15 colon = tested on: HCT-15 colon
CAKI-1 renal = tested on: CAKI-1 renal
SW-620 colon = tested on: SW-620 colon
OVCAR-3 ovarian = tested on: OVCAR-3 ovarian
COLO 205 colon = tested on: COLO 205 colon
LOX IMVI melanoma = tested on: LOX IMVI melanoma
NCI-H226 lung = tested on: NCI-H226 lung
MALME-3M melanoma = tested on: MALME-3M melanoma
DLD-1 colon = tested on: DLD-1 colon

With `COc1ccc(C(=O)O)c2c(=O)c3cccnc3[nH]c12` the TGI (UO-31 renal) was > 100 µM, the TGI (NCI-H460 lung) was > 100 µM and the TGI (UACC-62 melanoma) was > 100 µM. For the same compound, the TGI (KM20L2 colon) was > 100 µM, the TGI (M19-MEL melanoma) was > 100 µM and the TGI (TK-10 renal) was > 100 µM. For the same compound, the TGI (SNB-78 CNS) was > 100 µM, the TGI (CCRF-CEM leukemia) was > 100 µM and the TGI (SF-295 CNS) was > 100 µM. The TGI (DMS 114 small cell lung) was > 100 µM, the TGI (MOLT-4 leukemia) was > 100 µM and the TGI (OVCAR-8 ovarian) was > 100 µM. For the same compound, the TGI (RXF 393 renal) was > 100 µM, the TGI (SR leukemia) was > 100 µM and the TGI (SK-OV-3 ovarian) was > 100 µM. For the same compound, the TGI (HOP-62 NSCLC) was > 100 µM, the TGI (KM12 colon) was > 100 µM and the TGI (NCI-H23 lung) was > 100 µM. The TGI (UACC-257 melanoma) was > 100 µM, the TGI (ACHN renal) was > 100 µM and the TGI (HL-60(TB) leukemia) was > 100 µM. The TGI (EKVX NSCLC) was > 100 µM, the TGI (M14 melanoma) was > 100 µM and the TGI (HCT-116 colon) was > 100 µM. The TGI (NCI-H522 lung) was > 100 µM, the TGI (SK-MEL-28 melanoma) was > 100 µM and the TGI (A498 renal) was > 100 µM. The TGI (SNB-19 CNS) was > 100 µM, the TGI (U251 CNS) was > 100 µM and the TGI (RXF-631 renal) was > 100 µM. The TGI (IGROV1 ovarian) was > 100 µM, the TGI (OVCAR-5 ovarian) was > 100 µM and the TGI (HOP-92 NSCLC) was > 100 µM. For the same compound, the TGI (HT29 colon) was > 100 µM and the TGI (A549 NSCLC) was > 100 µM.
With `NC(CCC(=O)NC(CSC(=O)N(O)c1ccccc1)C(=O)NCC(=O)O)C(=O)O` (stereo not given) the TGI (UO-31 renal) was > 1000 µM, the TGI (HCC-2998 colon) was > 1000 µM and the TGI (NCI-H460 lung) was > 1000 µM. For the same compound, the TGI (UACC-62 melanoma) was > 1000 µM, the TGI (KM20L2 colon) was > 1000 µM and the TGI (M19-MEL melanoma) was > 1000 µM. The TGI (TK-10 renal) was > 1000 µM, the TGI (SF-539 CNS) was > 1000 µM and the TGI (DMS 273 small cell lung) was > 1000 µM. The TGI (786-0 renal) was > 1000 µM, the TGI (SNB-78 CNS) was > 1000 µM and the TGI (SNB-75 CNS) was > 1000 µM. The TGI (CCRF-CEM leukemia) was > 1000 µM, the TGI (SF-295 CNS) was > 1000 µM and the TGI (DMS 114 small cell lung) was > 1000 µM. For the same compound, the TGI (MOLT-4 leukemia) was > 1000 µM, the TGI (OVCAR-8 ovarian) was > 1000 µM and the TGI (RXF 393 renal) was > 1000 µM. The TGI (LXFL 529 NSCLC) was > 1000 µM, the TGI (K-562 leukemia) was > 1000 µM and the TGI (SR leukemia) was > 1000 µM. For the same compound, the TGI (SK-OV-3 ovarian) was > 1000 µM, the TGI (SF-268 CNS) was > 1000 µM and the TGI (HOP-62 NSCLC) was > 1000 µM. For the same compound, the TGI (KM12 colon) was > 1000 µM, the TGI (NCI-H23 lung) was > 1000 µM and the TGI (UACC-257 melanoma) was > 1000 µM. For the same compound, the TGI (OVCAR-4 ovarian) was > 1000 µM, the TGI (SN12C renal) was > 1000 µM and the TGI (SK-MEL-2 melanoma) was > 1000 µM. The TGI (SK-MEL-5 melanoma) was > 1000 µM, the TGI (ACHN renal) was > 1000 µM and the TGI (HCT-15 colon) was > 1000 µM. For the same compound, the TGI (CAKI-1 renal) was > 1000 µM, the TGI (HL-60(TB) leukemia) was > 1000 µM and the TGI (SW-620 colon) was > 1000 µM. For the same compound, the TGI (EKVX NSCLC) was > 1000 µM, the TGI (OVCAR-3 ovarian) was > 1000 µM and the TGI (M14 melanoma) was > 1000 µM. The TGI (COLO 205 colon) was > 1000 µM, the TGI (LOX IMVI melanoma) was > 1000 µM and the TGI (HCT-116 colon) was > 1000 µM. The TGI (NCI-H522 lung) was > 1000 µM, the TGI (NCI-H226 lung) was > 1000 µM and the TGI (SK-MEL-28 melanoma) was > 1000 µM. For the same compound, the TGI (A498 renal) was > 1000 µM, the TGI (SNB-19 CNS) was > 1000 µM and the TGI (U251 CNS) was > 1000 µM. For the same compound, the TGI (MALME-3M melanoma) was > 1000 µM, the TGI (IGROV1 ovarian) was > 1000 µM and the TGI (OVCAR-5 ovarian) was > 1000 µM. For the same compound, the TGI (HOP-92 NSCLC) was > 1000 µM, the TGI (HT29 colon) was > 1000 µM and the TGI (A549 NSCLC) was > 1000 µM. The TGI (DLD-1 colon) was > 1000 µM.
